Test results as given in ChEMBL document CHEMBL1201862, “PubChem BioAssay data set” (2004).
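Exposure lasted 48 hours, with cells grown in 96-well plates and compounds tested at five concentrations. GI50 marks 50% less growth.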 Active and inactive are the calls of the source. No stated cut-off is given here; in the data, active = GI50 up to about 1.1 µM and inactive = higher.

Legend:
Assay in all cases: NCI anticancer screen, dose series, 48 h
DMS-114 = system: DMS-114
XF498 = system: XF498
RXF 631 = system: RXF 631
HOP-18 = system: HOP-18
SNB-78 = system: SNB-78
LXFL 529 = system: LXFL 529
KM-20L2 = system: KM-20L2
Hs-578T = system: Hs-578T
BT-549 = system: BT-549

Measured: GI50

O=C1c2ccccc2C(=O)c2c(O)c(NCCCNCCO)cc(O)c21
inactive: DMS-114 11 µM | XF498 16 µM | RXF 631 6.34 µM | HOP-18 2.41 µM | SNB-78 11.2 µM | LXFL 529 11.1 µM

COc1ccc(C(=O)Nc2ccccc2)cc1[N+](=O)[O-]
inactive: KM-20L2 > 100 µM | DMS-114 52.4 µM | XF498 > 100 µM | RXF 631 > 100 µM | SNB-78 > 100 µM | LXFL 529 > 100 µM

CC(NS(=O)(=O)c1ccc([N+](=O)[O-])cc1)C(=O)O (stereo not given)
inactive: KM-20L2 > 100 µM | XF498 > 100 µM | RXF 631 > 100 µM | HOP-18 > 100 µM | LXFL 529 > 100 µM

CC(=O)N1CCN(C=S)CC1
inactive: KM-20L2 > 100 µM | DMS-114 > 100 µM | XF498 > 100 µM | RXF 631 > 100 µM | SNB-78 > 100 µM | LXFL 529 > 100 µM

N#CSCc1nc2ccc(Cl)cc2c(-c2ccccc2)[n+]1[O-]
inactive: KM-20L2 16.6 µM | DMS-114 24.5 µM | XF498 17.4 µM | RXF 631 37.9 µM | HOP-18 19.5 µM | SNB-78 36.9 µM | LXFL 529 13.9 µM

CCOC(=O)C1=C(C)N(NC(N)=O)C2(N)N(NC(N)=O)C(C)=C(C(=O)OCC)C12C#N (stereo not given)
inactive: KM-20L2 > 100 µM | DMS-114 > 100 µM | XF498 > 100 µM | RXF 631 > 100 µM | LXFL 529 > 100 µM

CCCCCC(=O)C(C)C1=Nc2nnc(CCCCCCCc3nnc4n3C(=O)C(C(C)C(=O)CCCCC)=N4)n2C1=O (stereo not given)
inactive: KM-20L2 > 100 µM | DMS-114 > 100 µM | XF498 > 100 µM | RXF 631 > 100 µM | HOP-18 > 100 µM | LXFL 529 > 100 µM

Cc1c2c(cc[n+]1C)O[B-](c1ccccc1)(c1ccccc1)O2
inactive: KM-20L2 71 µM | DMS-114 61.1 µM | XF498 35 µM | RXF 631 67.6 µM | HOP-18 58.6 µM | SNB-78 88.3 µM | LXFL 529 42.9 µM

O=[N+]([O-])c1cc(C(F)(F)F)cc2n[se]nc12
inactive: Hs-578T 19.3 µM | KM-20L2 6.81 µM | DMS-114 2.36 µM | XF498 2.39 µM | RXF 631 11 µM | BT-549 2.81 µM | HOP-18 3.14 µM | SNB-78 12.3 µM | LXFL 529 1.72 µM

O=C1[C@@H]2C(c3cccc([N+](=O)[O-])c3)=NO[C@@H]2C(=O)N1c1ccc(Cc2ccc(N3C(=O)[C@H]4C(c5cccc([N+](=O)[O-])c5)=NO[C@H]4C3=O)cc2)cc1
inactive: KM-20L2 > 100 µM | DMS-114 > 100 µM | RXF 631 > 100 µM | HOP-18 > 100 µM | SNB-78 > 100 µM | LXFL 529 > 100 µM

Cc1ccc(S(=O)(=O)N/N=C2\CCCCC23CCC(=O)NC3)cc1 (stereo not given)
inactive: KM-20L2 > 100 µM | DMS-114 > 100 µM | RXF 631 > 100 µM | HOP-18 > 100 µM | SNB-78 > 100 µM | LXFL 529 > 100 µM

C[C@H]1C(=O)CC[C@]2(C)CCC(C(C)(C)O)CC12O (stereo not given in full)
inactive: KM-20L2 > 100 µM | DMS-114 > 100 µM | RXF 631 > 100 µM | HOP-18 > 100 µM | SNB-78 > 100 µM | LXFL 529 > 100 µM

COc1ccc(C2=NC(CO)[C@H](c3ccccc3)O2)cc1OC (stereo not given in full)
inactive: KM-20L2 > 100 µM | DMS-114 > 100 µM | XF498 > 100 µM | RXF 631 > 100 µM | LXFL 529 > 100 µM

CC1(C)C(=NNC(=O)C[N+](C)(C)C)C(C)(C)C1=NNC(=O)C[N+](C)(C)C
inactive: KM-20L2 > 100 µM | DMS-114 > 100 µM | XF498 > 100 µM | RXF 631 > 100 µM | HOP-18 > 100 µM | SNB-78 > 100 µM | LXFL 529 > 100 µM

CC1=C2C(=O)[C@H]3[C@@H](CC=C4C[C@@H](O)CC[C@@]43C)[C@@H]2CC[C@]12O[C@@H]1C[C@H](C)CN[C@H]1[C@H]2C [JERVINE]
inactive: Hs-578T > 100 µM | KM-20L2 28.9 µM | DMS-114 18.9 µM | RXF 631 23.2 µM | BT-549 > 100 µM | HOP-18 17.1 µM | SNB-78 19.2 µM | LXFL 529 18.4 µM
